For experiment [1], the target named is T1, rat GPR14 (U-II receptor) (Rattus norvegicus, UniProt P49684).
T1 construct: expressed in transfected cells
T1 sequence (P49684 1-386): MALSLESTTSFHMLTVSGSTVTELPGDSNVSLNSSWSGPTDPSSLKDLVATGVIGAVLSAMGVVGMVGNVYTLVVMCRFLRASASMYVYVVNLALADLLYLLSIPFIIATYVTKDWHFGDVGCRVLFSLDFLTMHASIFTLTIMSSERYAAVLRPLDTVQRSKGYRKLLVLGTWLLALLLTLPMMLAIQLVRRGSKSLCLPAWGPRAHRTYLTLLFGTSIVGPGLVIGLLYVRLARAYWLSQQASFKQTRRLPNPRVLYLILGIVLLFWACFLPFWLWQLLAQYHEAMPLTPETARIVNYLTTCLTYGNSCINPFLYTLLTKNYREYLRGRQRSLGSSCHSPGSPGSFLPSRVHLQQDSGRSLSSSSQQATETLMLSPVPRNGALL
The experiment can be described thus: Rat UII Calcium Mobilization FLIPR Assay. Format: cell-based. The following applies: for inhibition at 10 µM / inhibition at 50 µM: CHO, 5 min, agonist-induced Ca2+ mobilization (FLIPR), CHO cells with rat UII receptor; for inhibition at 10 µM: 10 μM compound, read-out: % I @ 10; for inhibition at 50 µM: 50 μM compound, read-out: % I @ 50. An outline of the steps:
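Fluorescent calcium signals were recorded at room temperature (23° C) by FLIPR. Stable rat U-II receptor CHO lines had been dye-loaded for 1 h at 37° C in pH 7.4 HBSS containing 20 mM HEPES, 0.1% BSA and 2.5 mM probenecid.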
Background: Calcium assays in cells follow changes in intracellular calcium, usually with a dye or a luminescent sensor.

Experiment [2] deals with T2, endogenous human UII receptor (Homo sapiens, UniProt Q9UKP6).
T2 sequence (Q9UKP6 1-389): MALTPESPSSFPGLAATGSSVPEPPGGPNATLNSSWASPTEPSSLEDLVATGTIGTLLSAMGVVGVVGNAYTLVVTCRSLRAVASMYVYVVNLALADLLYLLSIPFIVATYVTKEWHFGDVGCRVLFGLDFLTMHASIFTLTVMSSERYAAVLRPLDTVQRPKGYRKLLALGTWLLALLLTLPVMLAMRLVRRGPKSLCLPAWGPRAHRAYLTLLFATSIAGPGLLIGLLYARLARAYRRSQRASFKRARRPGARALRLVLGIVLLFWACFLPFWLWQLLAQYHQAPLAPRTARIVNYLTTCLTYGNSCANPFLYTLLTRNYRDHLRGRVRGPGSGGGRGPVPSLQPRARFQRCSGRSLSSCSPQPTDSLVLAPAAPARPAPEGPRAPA
Put plainly: Human Radioligand Binding Assay ((^125I)-U-II binding to human skeletal muscle myoblasts).

[3] abbreviates: Inhibition of Acetyl-cyclic[Cys-Phe-Trp-Lys-(2-Nal)-Cys]-NH2 induced Ca2+ mobilization (FLIPR) in CHO cells transfected with rat UII receptor, read-out: IC50.
The mark [4] stands for this setting: Inhibition of human UII binding to human skeletal muscle myoblasts containing endogenous human UII receptor.
[5] abbreviates: average value for the compound tested, read-out: Rat UII FLIPR Average IC50.

Structures are written as SMILES. Values joined by “and” are separate entries in the source; they are usually repeats but may differ in a detail not shown here. Equal entries are not always repeated. Where two headings read alike, the source gives them in different places. Some results are limits rather than exact numbers.

One may read the IC50 as the concentration at which inhibition is half-maximal. Usually Ki stands for a measure of affinity in units of concentration, obtained from inhibition or displacement. The low end stands for higher affinity, the high end for lower affinity. Turning to `COc1ccc(C(CCCNC(=O)OC(C)(C)C)N2C(=O)c3cccc(N4CCN([C@H](C)c5ccccc5)CC4)c3C2=O)cc1OC` (stereo partly drawn) [Cpd 65, (4-(3,4-dimethoxy-phenyl)-4-{1,3-dioxo-4-[4-(1R)-(1-phenyl-ethyl)-piperazin-1-yl]-1,3-dihydro-isoindol-2-yl}-butyl)-carbamic acid tert-butyl ester], in experiment [1], the inhibition at 10 µM is 103% and the inhibition at 50 µM was found to be 102%. Also, the IC50 in experiment [1] (setting [3]) came to 0.2 µM. In experiment [2] (setting [4]), this molecule gave an inhibition constant Ki of 0.2 µM.

As for `COc1ccc(C(CCCN)N2C(=O)c3cccc(N4CCN([C@H](C)c5ccccc5)CC4)c3C2=O)cc1OC` (stereo partly drawn) [Cpd 66, 2-[4-amino-1-(3,4-dimethoxy-phenyl)-butyl]-4-[4-(1R)-(1-phenyl-ethyl)-piperazin-1-yl]-isoindole-1,3-dione], in experiment [1], the inhibition at 10 µM is 101% and the inhibition at 50 µM was 97%. The half-inhibitory concentration (IC50) in experiment [1] (setting [3]) worked out at 0.2 µM. In addition, in experiment [2] (setting [4]), the Ki was found to be 3.2 µM.

On to `COc1ccc(C(CCCNS(C)(=O)=O)N2C(=O)c3cccc(N4CCN([C@H](C)c5ccccc5)CC4)c3C2=O)cc1OC` (stereo partly drawn) [Cpd 67, N-(4-(3,4-dimethoxy-phenyl)-4-{1,3-dioxo-4-[4-(1R)-(1-phenyl-ethyl)-piperazin-1-yl]-1,3-dihydro-isoindol-2-yl}-butyl)-methanesulfonamide], for which, in experiment [1], the inhibition at 10 µM turned out to be 101% and the inhibition at 50 µM is 99%. The IC50 in experiment [1] (IC50 (μM), Inhibition of Acetyl-cyclic[Cys-Phe-Trp-Lys-(2-Nal)-Cys]-NH2 induced Ca2+ mobilization (FLIPR) in CHO cells transfected with rat UII receptor) worked out at 0.11 µM. In addition, the IC50 in experiment [1] (setting [3]) worked out at 0.1 µM. Further, affinity in experiment [2] was put at a Ki of 1.4 µM.

Consider `COc1ccc(C(CCCNS(=O)(=O)c2cccs2)N2C(=O)c3cccc(N4CCN([C@H](C)c5ccccc5)CC4)c3C2=O)cc1OC` (stereo partly drawn) [Cpd 68, thiophene-2-sulfonic acid (4-(3,4-dimethoxy-phenyl)-4-{1,3-dioxo-4-[4-(1R)-(1-phenyl-ethyl)-piperazin-1-yl]-1,3-dihydro-isoindol-2-yl}-butyl)-amide], for which, in experiment [1], the inhibition at 10 µM is 98% and the inhibition at 50 µM came to 99%. Moreover, the half-inhibitory concentration (IC50) in experiment [1] (setting [3]) is 0.1 µM and 0.08 µM. In experiment [2] (setting [4]), this molecule showed a Ki of 0.076 µM.

Regarding `COc1ccc(C(CCCCNC(=O)OC(C)(C)C)N2C(=O)c3cccc(N4CCN([C@H](C)c5ccccc5)CC4)c3C2=O)cc1OC` (stereo partly drawn) [Cpd 69, (5-(3,4-dimethoxy-phenyl)-5-{1,3-dioxo-4-[4-(1R)-(1-phenyl-ethyl)-piperazin-1-yl]-1,3-dihydro-isoindol-2-yl}-pentyl)-carbamic acid tert-butyl ester], in experiment [1], the inhibition at 10 µM amounted to 11% and the inhibition at 50 µM was determined as 52%. Besides, the concentration for half-maximal inhibition (IC50) in experiment [1] (setting [3]) is 65 µM. Moreover, the inhibition constant Ki in experiment [2] is more than 10 µM.

Take `COc1ccc(C(CCCCN)N2C(=O)c3cccc(N4CCN([C@H](C)c5ccccc5)CC4)c3C2=O)cc1OC` (stereo partly drawn) [Cpd 70, 2-[5-amino-1-(3,4-dimethoxy-phenyl)-pentyl]-4-[4-(1R)-(1-phenyl-ethyl)-piperazin-1-yl]-isoindole-1,3-dione]: in experiment [1], the inhibition at 10 µM turned out to be 102% and the inhibition at 50 µM was found to be 101%. Further, the half-maximal inhibitory concentration (IC50) in experiment [1] (setting [3]) is 0.3 µM and 0.27 µM. The molecule also returned an inhibition constant (Ki) in experiment [2] of 5.4 µM.

Take `COc1ccc(CN2C(=O)c3cccc(C4CCN(Cc5ccccc5)CC4)c3C2=O)cc1OC` [Cpd 76, 4-(1-benzyl-piperidin-4-yl)-2-(3,4-dimethoxy-benzyl)-isoindole-1,3-dione]: in experiment [1], the inhibition at 10 µM came out at 98% and the inhibition at 50 µM came out at 99%. Moreover, the IC50 in experiment [1] (setting [3]) amounted to 0.96 µM. In experiment [2], this molecule returned a Ki of 1.5 µM.

For the molecule `COc1ccc(CN2C(=O)c3cccc(N4CCN(Cc5ccc(C)o5)CC4)c3C2=O)cc1OC` [Cpd 77, 2-(3,4-dimethoxy-benzyl)-4-[4-(5-methyl-furan-2-ylmethyl)-piperazin-1-yl]-isoindole-1,3-dione], in experiment [1] (setting [5]), the half-maximal inhibitory concentration (IC50) came out at 0.85 µM. The affinity in experiment [2], expressed as Ki, was 7.2 µM.

For the molecule `COc1ccc(CN2C(=O)c3cccc(N4CCN(Cc5ccoc5)CC4)c3C2=O)cc1OC` [Cpd 78, 2-(3,4-dimethoxy-benzyl)-4-(4-furan-3-ylmethyl-piperazin-1-yl)-isoindole-1,3-dione], in experiment [1] (setting [5]), the IC50 amounted to 0.27 µM. In experiment [2], this molecule displayed a Ki of 2.6 µM.

For the molecule `COc1ccc(CN2C(=O)c3cccc(N4CCN(Cc5cccnc5)CC4)c3C2=O)cc1OC` [Cpd 79, 2-(3,4-dimethoxy-benzyl)-4-(4-pyridin-3-ylmethyl-piperazin-1-yl)-isoindole-1,3-dione], the 50% inhibitory concentration (IC50) in experiment [1] (setting [5]) came out at 1.2 µM. The molecule further displayed an inhibitory constant (Ki) in experiment [2] of more than 10 µM.

`COc1ccc(CN2C(=O)c3cccc(N4CCN(CC5CCCC5)CC4)c3C2=O)cc1OC` [Cpd 80, 4-(4-cyclopentylmethyl-piperazin-1-yl)-2-(3,4-dimethoxy-benzyl)-isoindole-1,3-dione]: the IC50 in experiment [1] (setting [5]) was 1.3 µM. Besides, the inhibition constant (Ki) in experiment [2] is more than 10 µM.

`COc1ccc(CN2C(=O)c3cccc(N4CCN(Cc5cccs5)CC4)c3C2=O)cc1OC` [Cpd 81, 2-(3,4-dimethoxy-benzyl)-4-(4-thiophen-2-ylmethyl-piperazin-1-yl)-isoindole-1,3-dione]: the IC50 in experiment [1] (setting [5]) worked out at 1.4 µM. The molecule further came in with a Ki in experiment [2] of more than 10 µM.

Take `COc1ccc(CN2C(=O)c3cccc(N4CCN(Cc5ccsc5)CC4)c3C2=O)cc1OC` [Cpd 83, 2-(3,4-dimethoxy-benzyl)-4-(4-thiophen-3-ylmethyl-piperazin-1-yl)-isoindole-1,3-dione]: in experiment [1] (setting [5]), the concentration for half-maximal inhibition (IC50) came out at 0.23 µM. In addition, the inhibitory constant (Ki) in experiment [2] amounted to 1.6 µM.

Take `COc1ccc(CN2C(=O)c3cccc(N4CCN(Cc5ccccc5O)CC4)c3C2=O)cc1OC` [Cpd 85, 2-(3,4-dimethoxy-benzyl)-4-[4-(2-hydroxy-benzyl)-piperazin-1-yl]-isoindole-1,3-dione]: in experiment [1] (setting [5]), the half-maximal inhibitory concentration (IC50) was 2.2 µM. Also, the affinity in experiment [2] corresponds to a Ki of 3.6 µM.

Regarding `C/C=C(\C)CN1CCN(c2cccc3c2C(=O)N(Cc2ccc(OC)c(OC)c2)C3=O)CC1` [Cpd 86, (E)-2-(3,4-dimethoxy-benzyl)-4-[4-(2-methyl-but-2-enyl)-piperazin-1-yl]-isoindole-1,3-dione], in experiment [1] (setting [5]), the IC50 amounted to 0.29 µM. In addition, the inhibition constant (Ki) in experiment [2] turned out to be 1.3 µM.

Consider `COc1ccc([C@@H](CCCNS(=O)(=O)c2ccc(C)s2)N2C(=O)c3cccc(N4CCN([C@H](C)c5ccccc5)CC4)c3C2=O)cc1OC` [Cpd 126, (R)-5-methyl-thiophene-2-sulfonic acid (4-(3,4-dimethoxy-phenyl)-4-{1,3-dioxo-4-[4-(1R)-(1-phenyl-ethyl)-piperazin-1-yl]-1,3-dihydro-isoindol-2-yl}-butyl)-amide], for which, in experiment [1] (setting [5]), the IC50 was determined as 0.081 µM. In addition, in experiment [2], affinity was put at a Ki of 0.34 µM.

With `COc1ccc([C@@H](CCCNS(=O)(=O)c2sc(NC(C)=O)nc2C)N2C(=O)c3cccc(N4CCN([C@H](C)c5ccccc5)CC4)c3C2=O)cc1OC` [Cpd 130, (R)-N-[5-(4-(3,4-dimethoxy-phenyl)-4-{1,3-dioxo-4-[4-(1R)-(1-phenyl-ethyl)-piperazin-1-yl]-1,3-dihydro-isoindol-2-yl}-butylsulfamoyl)-4-methyl-thiazol-2-yl]-acetamide], in experiment [1] (setting [5]), the IC50 worked out at 0.054 µM. In addition, the Ki in experiment [2] was more than 0.3 µM.

For the molecule `COc1ccc([C@@H](CCCNS(=O)(=O)c2cc(C)sc2C)N2C(=O)c3cccc(N4CCN([C@H](C)c5ccccc5)CC4)c3C2=O)cc1OC` [Cpd 131, (R)-2,5-dimethyl-thiophene-3-sulfonic acid (4-(3,4-dimethoxy-phenyl)-4-{1,3-dioxo-4-[4-(1R)-(1-phenyl-ethyl)-piperazin-1-yl]-1,3-dihydro-isoindol-2-yl}-butyl)-amide], the IC50 in experiment [1] (setting [5]) came out at 0.12 µM. This molecule gave a Ki in experiment [2] of more than 0.3 µM.

With `COc1ccc([C@@H](CCCNS(=O)(=O)C2CCS(=O)(=O)C2)N2C(=O)c3cccc(N4CCN([C@H](C)c5ccccc5)CC4)c3C2=O)cc1OC` (stereo partly drawn) [Cpd 133, (R)-1,1-dioxo-tetrahydro-1λ^6-thiophene-3-sulfonic acid (4-(3,4-dimethoxy-phenyl)-4-{1,3-dioxo-4-[4-(1R)-(1-phenyl-ethyl)-piperazin-1-yl]-1,3-dihydro-isoindol-2-yl}-butyl)-amide], in experiment [1] (setting [5]), the half-inhibitory concentration (IC50) was found to be 0.014 µM. In experiment [2], this molecule yielded a Ki of 0.059 µM.

(Values after patent US8193191B2, “Urotensin II receptor antagonists” (Janssen Pharmaceutica N.V., priority 2006, dated 2012).)
